The text below walks through data of patent US20230203059A1, “MACROCYCLIC JAK INHIBITOR AND USES THEREOF” (Biopolar Hongye (Guangdong) Pharmaceutical Co. Ltd., priority 2020, published 2023).

What all share (format): biochemical
In one test the target is JAK1 (Homo sapiens, UniProt P23458). In words: JAK kinase activity, homogeneous time-resolved fluorescence (JAK1 reaction system). To be noted: ATP 2 μM, JAK1 protein 0.2 ng/μL; read-out: JAK 1 activity. The procedure, abridged:
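Kinase activity read as the 665 nm/615 nm time-resolved fluorescence ratio (320 nm excitation) after EDTA-containing antibody and XL-615 addition. Reaction ran 1 h at pH 7.0 (Hepes, MgCl2, DTT) with 0.2 ng/μL JAK1 and ATP at 2 μM. IC50 derived by Hill-slope fit.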

Another test deals with JAK2 (Homo sapiens, UniProt O60674). As to the kind of experiment: JAK kinase activity, homogeneous time-resolved fluorescence (JAK2 reaction system). To be noted: ATP 2 μM, JAK2 protein 0.01 ng/μL. The procedure, abridged:
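IC50 derived by Hill-equation fit of the 665/615 nm time-resolved fluorescence ratio after EDTA-containing detection mix with anti-phosphosubstrate antibody. Preceding 1 h reaction contained 2 μM ATP, 0.01 ng/μL JAK2, substrate, 50 mM Hepes pH 7.0, 5 mM MgCl2, 1 mM DTT.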

A further test has as its target T1, JAK3 (Homo sapiens, UniProt P52333).
T1 sequence (P52333 1-1124): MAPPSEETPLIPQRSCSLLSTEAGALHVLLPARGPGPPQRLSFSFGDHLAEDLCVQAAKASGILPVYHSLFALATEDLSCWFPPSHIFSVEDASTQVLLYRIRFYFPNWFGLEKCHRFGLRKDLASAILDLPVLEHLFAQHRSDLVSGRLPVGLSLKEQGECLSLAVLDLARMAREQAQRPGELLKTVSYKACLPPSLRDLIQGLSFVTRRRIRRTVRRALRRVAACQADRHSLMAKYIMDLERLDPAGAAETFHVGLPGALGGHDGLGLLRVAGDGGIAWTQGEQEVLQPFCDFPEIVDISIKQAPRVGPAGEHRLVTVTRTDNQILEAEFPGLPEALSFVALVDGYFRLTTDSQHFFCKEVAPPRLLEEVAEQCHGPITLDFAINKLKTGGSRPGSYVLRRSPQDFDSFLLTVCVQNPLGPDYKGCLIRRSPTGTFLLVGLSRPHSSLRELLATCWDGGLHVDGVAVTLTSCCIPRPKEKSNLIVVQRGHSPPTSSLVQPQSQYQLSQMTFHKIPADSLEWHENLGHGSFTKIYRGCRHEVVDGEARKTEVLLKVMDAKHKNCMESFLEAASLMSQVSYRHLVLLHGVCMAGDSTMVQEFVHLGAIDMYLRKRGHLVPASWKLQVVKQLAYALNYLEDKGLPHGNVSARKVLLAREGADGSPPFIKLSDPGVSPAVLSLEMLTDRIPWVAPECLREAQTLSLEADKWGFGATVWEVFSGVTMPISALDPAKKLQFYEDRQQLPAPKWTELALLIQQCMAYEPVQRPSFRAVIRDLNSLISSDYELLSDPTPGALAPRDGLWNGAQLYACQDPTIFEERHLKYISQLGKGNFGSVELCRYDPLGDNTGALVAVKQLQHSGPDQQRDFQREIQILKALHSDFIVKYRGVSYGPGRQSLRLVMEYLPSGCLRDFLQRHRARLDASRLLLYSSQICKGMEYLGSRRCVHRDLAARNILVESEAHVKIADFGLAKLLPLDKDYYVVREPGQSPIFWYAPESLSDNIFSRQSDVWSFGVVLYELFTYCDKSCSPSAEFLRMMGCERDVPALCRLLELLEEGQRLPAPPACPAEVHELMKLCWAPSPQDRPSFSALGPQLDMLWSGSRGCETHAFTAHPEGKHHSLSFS
As to the kind of experiment: JAK kinase activity, homogeneous time-resolved fluorescence (JAK3 reaction system). To be noted: ATP 2 μM, JAK3 protein 0.04 ng/μL; read-out: JAK 3 activity.

The target of the next test is TYK2 (Homo sapiens, UniProt P29597). In words: JAK kinase activity, homogeneous time-resolved fluorescence (TYK2 reaction system). To be noted: ATP 2 μM, TYK2 protein 0.2 ng/μL; read-out: TYK 2 activity. The procedure, abridged:
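Activity read as the 665 nm/615 nm ratio after adding EDTA-containing detection mix with anti-phospho-substrate antibody and XL-615. Beforehand, 0.2 ng/μL TYK2, 2 μM ATP, substrate and compound reacted 1 h in pH 7.0 Hepes buffer with MgCl2 and DTT. IC50 fitted with Hill-slope equation.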

Sequence of TYK2 (P29597 whole entry): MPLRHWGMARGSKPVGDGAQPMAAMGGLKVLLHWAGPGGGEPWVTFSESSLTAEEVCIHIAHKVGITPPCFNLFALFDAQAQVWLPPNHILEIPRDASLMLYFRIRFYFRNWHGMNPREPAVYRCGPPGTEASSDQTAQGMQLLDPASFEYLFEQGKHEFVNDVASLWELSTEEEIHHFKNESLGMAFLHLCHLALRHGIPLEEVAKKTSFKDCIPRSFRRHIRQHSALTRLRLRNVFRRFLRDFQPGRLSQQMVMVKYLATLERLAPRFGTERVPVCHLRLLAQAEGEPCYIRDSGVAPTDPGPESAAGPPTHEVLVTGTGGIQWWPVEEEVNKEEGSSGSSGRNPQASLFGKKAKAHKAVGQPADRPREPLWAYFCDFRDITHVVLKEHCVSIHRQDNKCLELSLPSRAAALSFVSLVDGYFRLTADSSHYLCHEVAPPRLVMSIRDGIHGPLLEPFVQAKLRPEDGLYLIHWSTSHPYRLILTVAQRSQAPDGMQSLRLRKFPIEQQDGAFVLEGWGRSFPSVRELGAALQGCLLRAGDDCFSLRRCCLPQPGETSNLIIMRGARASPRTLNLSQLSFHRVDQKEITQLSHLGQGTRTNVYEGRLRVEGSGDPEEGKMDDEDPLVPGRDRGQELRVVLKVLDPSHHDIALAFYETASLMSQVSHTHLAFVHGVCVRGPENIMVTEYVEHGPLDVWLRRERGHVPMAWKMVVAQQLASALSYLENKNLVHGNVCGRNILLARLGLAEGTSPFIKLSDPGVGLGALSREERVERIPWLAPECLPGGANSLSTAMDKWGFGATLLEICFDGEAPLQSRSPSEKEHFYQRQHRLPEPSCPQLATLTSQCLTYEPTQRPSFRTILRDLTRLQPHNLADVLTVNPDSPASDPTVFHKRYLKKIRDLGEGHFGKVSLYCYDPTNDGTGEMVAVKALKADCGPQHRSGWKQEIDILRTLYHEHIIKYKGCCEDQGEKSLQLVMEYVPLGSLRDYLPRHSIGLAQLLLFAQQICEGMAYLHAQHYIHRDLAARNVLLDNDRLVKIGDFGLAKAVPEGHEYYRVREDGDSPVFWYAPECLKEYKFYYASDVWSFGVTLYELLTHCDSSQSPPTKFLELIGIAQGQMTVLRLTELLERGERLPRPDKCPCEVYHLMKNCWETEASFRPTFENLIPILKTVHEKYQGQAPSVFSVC
Sequence of JAK2 (O60674 whole entry): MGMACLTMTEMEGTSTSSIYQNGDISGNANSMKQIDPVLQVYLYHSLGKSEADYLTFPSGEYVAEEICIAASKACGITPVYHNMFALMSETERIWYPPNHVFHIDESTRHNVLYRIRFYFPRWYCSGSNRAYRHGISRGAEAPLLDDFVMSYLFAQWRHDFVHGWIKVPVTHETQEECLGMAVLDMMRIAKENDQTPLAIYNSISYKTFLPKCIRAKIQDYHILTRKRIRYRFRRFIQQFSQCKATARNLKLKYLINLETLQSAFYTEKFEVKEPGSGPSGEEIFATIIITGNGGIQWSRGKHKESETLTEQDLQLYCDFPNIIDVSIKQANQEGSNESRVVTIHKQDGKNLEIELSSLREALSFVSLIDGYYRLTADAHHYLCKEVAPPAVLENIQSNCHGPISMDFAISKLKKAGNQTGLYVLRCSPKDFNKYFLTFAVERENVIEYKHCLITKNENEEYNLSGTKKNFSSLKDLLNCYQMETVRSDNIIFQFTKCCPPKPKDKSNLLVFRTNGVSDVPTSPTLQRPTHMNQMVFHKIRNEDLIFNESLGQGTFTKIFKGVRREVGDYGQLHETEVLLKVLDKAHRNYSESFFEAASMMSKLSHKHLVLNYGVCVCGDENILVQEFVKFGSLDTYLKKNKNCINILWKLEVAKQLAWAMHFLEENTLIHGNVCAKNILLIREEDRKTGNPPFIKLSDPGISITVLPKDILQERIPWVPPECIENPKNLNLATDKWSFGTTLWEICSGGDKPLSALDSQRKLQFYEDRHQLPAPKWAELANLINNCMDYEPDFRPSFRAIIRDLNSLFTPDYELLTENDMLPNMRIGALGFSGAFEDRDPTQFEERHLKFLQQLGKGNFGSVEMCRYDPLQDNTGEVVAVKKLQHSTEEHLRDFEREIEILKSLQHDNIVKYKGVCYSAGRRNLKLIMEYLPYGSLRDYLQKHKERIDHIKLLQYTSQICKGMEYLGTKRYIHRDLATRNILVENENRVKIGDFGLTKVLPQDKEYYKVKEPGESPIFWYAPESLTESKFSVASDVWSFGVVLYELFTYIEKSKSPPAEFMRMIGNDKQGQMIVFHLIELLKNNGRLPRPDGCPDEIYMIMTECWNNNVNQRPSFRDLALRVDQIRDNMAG
Sequence of JAK1 (P23458 whole entry): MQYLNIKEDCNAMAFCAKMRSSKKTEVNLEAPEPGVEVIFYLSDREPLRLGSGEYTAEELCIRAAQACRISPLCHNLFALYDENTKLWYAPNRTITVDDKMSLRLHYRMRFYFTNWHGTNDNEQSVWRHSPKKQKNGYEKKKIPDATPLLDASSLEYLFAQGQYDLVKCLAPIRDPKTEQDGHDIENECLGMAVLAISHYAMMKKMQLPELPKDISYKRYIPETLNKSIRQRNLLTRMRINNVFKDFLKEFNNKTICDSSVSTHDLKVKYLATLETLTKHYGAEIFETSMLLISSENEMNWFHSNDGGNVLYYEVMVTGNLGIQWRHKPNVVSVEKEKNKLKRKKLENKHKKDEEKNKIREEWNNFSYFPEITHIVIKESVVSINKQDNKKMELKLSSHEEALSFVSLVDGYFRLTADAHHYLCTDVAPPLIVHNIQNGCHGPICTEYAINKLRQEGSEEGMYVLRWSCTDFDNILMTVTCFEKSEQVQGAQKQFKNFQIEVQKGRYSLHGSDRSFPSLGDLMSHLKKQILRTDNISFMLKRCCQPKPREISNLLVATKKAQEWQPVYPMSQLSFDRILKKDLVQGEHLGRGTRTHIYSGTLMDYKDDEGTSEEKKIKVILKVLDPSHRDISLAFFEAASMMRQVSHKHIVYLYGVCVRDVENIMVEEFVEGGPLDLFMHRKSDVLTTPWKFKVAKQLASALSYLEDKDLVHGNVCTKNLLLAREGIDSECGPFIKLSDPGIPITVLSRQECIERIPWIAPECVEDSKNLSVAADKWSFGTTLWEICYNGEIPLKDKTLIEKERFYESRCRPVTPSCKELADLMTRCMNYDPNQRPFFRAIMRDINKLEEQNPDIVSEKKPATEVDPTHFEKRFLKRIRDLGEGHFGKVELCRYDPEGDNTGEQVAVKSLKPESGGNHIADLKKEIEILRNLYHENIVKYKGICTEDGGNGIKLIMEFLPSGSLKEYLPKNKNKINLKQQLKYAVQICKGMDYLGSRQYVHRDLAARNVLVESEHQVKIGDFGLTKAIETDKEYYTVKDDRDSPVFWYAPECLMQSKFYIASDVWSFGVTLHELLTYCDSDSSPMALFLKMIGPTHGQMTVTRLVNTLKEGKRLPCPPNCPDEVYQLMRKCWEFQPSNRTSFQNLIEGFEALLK

As to `Nc1cc2ccc1-c1ccnc(n1)Nc1ccc(Oc3cccc(F)c3)c(c1)COCCCCNC2=O` [Example 102, 1^2-amino-4^4-(3-fluorophenoxy)-6-oxa-3,11-diaza-2(4,2)-pyrimidina-1(1,4),4(1,3)-dibenzenacyclodode-caphan-12-one], the IC50 at JAK1 is 1000 to 10000 nM; against JAK2 it was 1000 to 10000 nM; on JAK3, 11 to 100 nM; at TYK2, over 10000 nM.
On to `CC1CCNC(=O)c2ccc(c([N+](=O)[O-])c2)-c2ccnc(n2)Nc2ccc(OC3CC3)c(c2)COC1` (centres unmarked) [Example 103], for which the IC50 on JAK1 is over 10000 nM; at JAK2, 1000 to 10000 nM; on JAK3, 101 to 1000 nM; at TYK2, over 10000 nM.
In the case of `O=C1NCCCCOCc2cc(ccc2OCC2CCCC2)Nc2nccc(n2)-c2ccc1cc2[N+](=O)[O-]` [Example 104, 4^4-(cyclopentylmethoxy)-1^2-nitro-6-oxa-3,11-diaza-2(4,2)-pyrimidina-1(1,4),4(1,3)-dibenzenacyclodo-decaphan-12-one], the IC50 on JAK1 was over 10000 nM; at JAK2, 1000 to 10000 nM; on JAK3, 101 to 1000 nM; on TYK2, over 10000 nM.
As to `Nc1cc2ccc1-c1ccnc(n1)Nc1ccc(OCC3CCCC3)c(c1)COCCCCNC2=O` [Example 105, 1^2-amino-4^4-(cyclopentylmethoxy)-6-oxa-3,11-diaza-2(4,2)-pyrimidi-na-1(1,4),4(1,3)-dibenzenacyclodo-decaphan-12-one], the IC50 was 1000 to 10000 nM at JAK1, 101 to 1000 nM against JAK2, under 10 nM on JAK3 and over 10000 nM on TYK2.
On the same counts, the results for `O=C1NCCCCOCc2cc(ccc2Oc2ccc(F)cc2)Nc2nccc(n2)-c2ccc1cc2[N+](=O)[O-]` [Example 106, 4^4-(4-fluorophenoxy)-1^2-nitro-6-o-xa-3,11-diaza-2(4,2)-pyrimidina-1(1,4),4(1,3)-dibenzenacyclo-dodecaphan-12-one] are over 10000 nM, 1000 to 10000 nM, 101 to 1000 nM and over 10000 nM.
Consider `Nc1cc2ccc1-c1ccnc(n1)Nc1ccc(Oc3ccc(F)cc3)c(c1)COCCCCNC2=O` [Example 107, 1^2-amino-4^4-(4-fluorophenoxy)-6-oxa-3,11-diaza-2(4,2)-pyrimidina-1(1,4),4(1,3)-dibenzenacyclo-dodecaphan-12-one], for which the IC50 at JAK1 was 1000 to 10000 nM; at JAK2 it was 101 to 1000 nM; on JAK3, 11 to 100 nM; on TYK2 it was over 10000 nM.
The like results for `O=C1NCCCCOCc2cc(ccc2OCC(F)(F)F)Nc2nccc(n2)-c2ccc1cc2[N+](=O)[O-]` [Example 108, 1^2-nitro-4^4-(2,2,2-trifluoroethoxy)-6-oxa-3,11-diaza-2(4,2)-pyrimidina-1(1,4),4(1,3)-dibenzenacyclo-dodecaphan-12-one] were, in that order, 1000 to 10000 nM, 1000 to 10000 nM, 101 to 1000 nM and over 10000 nM.
The like results for `Nc1cc2ccc1-c1ccnc(n1)Nc1ccc(OCC(F)(F)F)c(c1)COCCCCNC2=O` [Example 109, 1^2-amino-4^4-(2,2,2-trifluoroethoxy)-6-oxa-3,11-diaza-2(4,2)-pyrimidi-na-1(1,4),4(1,3)-dibenzenacyclo-dodecaphan-12-one] were, in that order, 1000 to 10000 nM, 101 to 1000 nM, 11 to 100 nM and 1000 to 10000 nM.
Turning to `Nc1cc2ccc1-c1ccnc(n1)Nc1ccc(Oc3cccnc3)c(c1)COCCCCNC2=O` [Example 110, 1^2-amino-4^4-(pyridin-3-oxy)-6-oxa-3,11-diaza-2(4,2)-pyrimidina-1(1,4),4(1,3)-dibenzenacyclodo-decaphan-12-one], the IC50 at JAK1 is 1000 to 10000 nM; against JAK2 it was 101 to 1000 nM; on JAK3, under 10 nM; at TYK2, 1000 to 10000 nM.
Consider `O=C1NCCCCOCc2cc(ccc2OCC2CC2)Nc2nccc(n2)-c2ccc1cc2[N+](=O)[O-]` [Example 111, 4^4-(cyclopropylmethoxy)-1^2-nitro-6-oxa-3,11-diaza-2(4,2)-pyrimidina-1(1,4),4(1,3)-dibenzenacyclo-dodecaphan-12-one], for which the IC50 at JAK1 was 1000 to 10000 nM; at JAK2, 1000 to 10000 nM; on JAK3, 101 to 1000 nM; on TYK2 it was over 10000 nM.
Consider `Nc1cc2ccc1-c1ccnc(n1)Nc1ccc(OCC3CC3)c(c1)COCCCCNC2=O` [Example 112, 1^2-amino-4^4-(cyclopropylmethoxy)-6-oxa-3,11-diaza-2(4,2)-pyrimidi-na-1(1,4),4(1,3)-dibenzenacyclo-dodecaphan-12-one], for which the IC50 on JAK1 is 1000 to 10000 nM; against JAK2 it was 101 to 1000 nM; at JAK3 it was under 10 nM; on TYK2, over 10000 nM.
Consider `O=C1NCCCCOCc2cc(ccc2OC2CCCOC2)Nc2nccc(n2)-c2ccc1cc2[N+](=O)[O-]` (centres unmarked) [Example 113, 1^2-nitro-4^4-((tetrahydro-2H-pyran-3-yl)oxy)-6-oxa-3,11-diaza-2(4,2)-pyrimidina-1(1,4),4(1,3)-dibenzena-cyclododecaphan-12-one], for which the IC50 at JAK1 is 1000 to 10000 nM; on JAK2, 1000 to 10000 nM; at JAK3, 101 to 1000 nM; at TYK2, over 10000 nM.
As to `Nc1cc2ccc1-c1ccnc(n1)Nc1ccc(OC3CCCOC3)c(c1)COCCCCNC2=O` (centres unmarked) [Example 114, 1^2-amino-4^4-((tetrahydro-2H-pyran-3-yl)oxy)-6-oxa-3,11-diaza-2(4,2)-pyrimidina-1(1,4),4(1,3)-di-benzenacyclododecaphan-12-one], the IC50 was 101 to 1000 nM at JAK1, 11 to 100 nM against JAK2, under 10 nM on JAK3 and 1000 to 10000 nM on TYK2.
The like results for `CC(C)COc1ccc2cc1COCCCCNC(=O)c1ccc(c([N+](=O)[O-])c1)-c1ccnc(n1)N2` [Example 115, 4^4-isobutoxy-1^2-nitro-6-oxa-3,11-diaza-2(4,2)-pyrimidina-1(1,4),4(1,3)-dibenzenacyclododecaphan-12-one] were, in that order, 1000 to 10000 nM, 1000 to 10000 nM, 101 to 1000 nM and over 10000 nM.
In the case of `CC(C)COc1ccc2cc1COCCCCNC(=O)c1ccc(c(N)c1)-c1ccnc(n1)N2` [Example 116, 1^2-amino-4^4-isobutoxy-6-oxa-3,11-diaza-2(4,2)-pyrimidina-1(1,4),4(1,3)-dibenzenacyclododecaphan-12-one], the IC50 at JAK1 is 101 to 1000 nM; at JAK2, 101 to 1000 nM; at JAK3 it was under 10 nM; on TYK2 it was 1000 to 10000 nM.
On to `O=C1NCCCCOCc2cc(ccc2OCc2ccccc2)Nc2nccc(n2)-c2ccc1cc2[N+](=O)[O-]` [Example 117, 4^4-(benzyloxy)-1^2-nitro-6-oxa-3,1,1-diaza-2(4,2)-pyrimidina-1(1,4),4(1,3)-dibenzenacyclododecaphan-12-one], for which the IC50 on JAK1 is 1000 to 10000 nM; against JAK2, over 10000 nM; at JAK3, 101 to 1000 nM; on TYK2 it was over 10000 nM.
For `Nc1cc2ccc1-c1ccnc(n1)Nc1ccc(OCc3ccccc3)c(c1)COCCCCNC2=O` [Example 118, 1^2-amino-4^4-(benzyloxy)-6-oxa-3,11-diaza-2(4,2)-pyrimidina-1(1,4),4(1,3)-dibenzenacyclododecaphan-12-one], the IC50 was 1000 to 10000 nM at JAK1, 1000 to 10000 nM on JAK2, 11 to 100 nM on JAK3 and over 10000 nM on TYK2.
